Test results: patent US8674109B2, “Pesticidal compositions” (Dow AgroSciences, LLC., priority 2009, dated 2014)

Columns and labels:
Format in all cases: in vivo
[1] = test system: green peach aphid (Myzus persicae); assay: Insecticidal test for green peach aphid in foliar spray assay on cabbage seedlings
Method in brief: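 Cabbage seedlings carrying 20-50 aphids (adults and nymphs) were sprayed to runoff with compound at 200 ppm in acetone/methanol diluted in 0.025% Tween 20, with four pots per treatment. After three days at about 25 °C and 40% RH, live aphids were counted. Percent control was Abbott-corrected against solvent-check plants.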

[2] = test system: beet armyworm (BAW; Spodoptera exigua: Lepidoptera); assay: Insecticidal test for beet armyworm, 128-well diet tray assay
Method in brief: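 Three to five second-instar larvae per well fed on artificial diet surface-treated with 50 μg/cm^2 compound (applied in 90:10 acetone-water, dried). Trays were held six days at 25 °C, 14:10 light-dark. Percent mortality was averaged across eight wells.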

[3] = test system: corn earworm (CEW; Helicoverpa zea: Lepidoptera); assay: Insecticidal test for corn earworm, 128-well diet tray assay
Method in brief: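 Second-instar larvae, three to five per well, placed on artificial diet treated with 50 μg/cm^2 compound applied in 90:10 acetone-water and dried. Held six days at 25° C., 14:10 light-dark. Percent mortality scored per well and averaged over eight wells.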

SMILES	% Mortality GPA 200 ppm [1]	% Mortality BAW 50 μg/cm^2 [2]	% Mortality CEW 50 μg/cm^2 [3]
Cc1ccccc1C(C)OC(=O)Nc1ccc(-c2ncn(-c3ccc(OC(F)(F)F)cc3)n2)cc1 (stereo not drawn) [Compound 93]	B (Less than 80)	A (50-100)	A (50-100)
Cc1ccc2c(c1)CC(C)C(OC(=O)Nc1ccc(-c3ncn(-c4ccc(OC(F)(F)F)cc4)n3)cc1)O2 (stereo not drawn) [Compound 94]	B (Less than 80)	A (50-100)	A (50-100)
O=C(Nc1ccc(-c2ncn(-c3ccc(OC(F)(F)F)cc3)n2)cc1)OC1CCc2ccccc2O1 (stereo not drawn) [Compound 95]	B (Less than 80)	A (50-100)	A (50-100)
CCC#CC(C)(C)OC(=O)Nc1ccc(-c2ncn(-c3ccc(OC(F)(F)F)cc3)n2)cc1 [Compound 96]	B (Less than 80)	A (50-100)	A (50-100)
COc1ccc(C(C)OC(=O)Nc2ccc(-c3ncn(-c4ccc(OC(F)(F)F)cc4)n3)cc2)cc1 (stereo not drawn) [Compound 97]	B (Less than 80)	A (50-100)	A (50-100)
CCOC(=O)Nc1ccc(-c2ncn(-c3ccc(OC(F)(F)F)cc3)n2)cc1 [Compound 98]	B (Less than 80)	A (50-100)	A (50-100)
CN(C)CC#CC(C)(C)OC(=O)Nc1ccc(-c2ncn(-c3ccc(OC(F)(F)F)cc3)n2)cc1 [Compound 99]	B (Less than 80)	B (Less than 50)	B (Less than 50)
COc1ccc(CC(C)(C)OC(=O)Nc2ccc(-c3ncn(-c4ccc(OC(F)(F)F)cc4)n3)cc2)cc1 [Compound 100]	B (Less than 80)	B (Less than 50)	B (Less than 50)
CCCCCC(CC)OC(=O)Nc1ccc(-c2ncn(-c3ccc(OC(F)(F)F)cc3)n2)cc1 (stereo not drawn) [Compound 101]	B (Less than 80)	A (50-100)	A (50-100)
CCCCCCC(C)OC(=O)Nc1ccc(-c2ncn(-c3ccc(OC(F)(F)F)cc3)n2)cc1 (stereo not drawn) [Compound 102]	B (Less than 80)	B (Less than 50)	B (Less than 50)
CC(OC(=O)Nc1ccc(-c2ncn(-c3ccc(OC(F)(F)F)cc3)n2)cc1)C(C)(C)C (stereo not drawn) [Compound 103]	B (Less than 80)	A (50-100)	B (Less than 50)
COC(=O)Nc1ccc(-c2ncn(-c3ccc(OC(F)(F)F)cc3)n2)cc1 [Compound 104]	B (Less than 80)	A (50-100)	A (50-100)
O=C(Nc1ccc(-c2ncn(-c3ccc(OC(F)(F)F)cc3)n2)cc1)OCc1ccccc1 [Compound 105]	B (Less than 80)	A (50-100)	A (50-100)
O=C(Nc1ccc(-c2ncn(-c3ccc(OC(F)(F)F)cc3)n2)cc1)OC1Cc2ccccc2C1 [Compound 106]	B (Less than 80)	B (Less than 50)	A (50-100)
CC(Cc1ccccc1)OC(=O)Nc1ccc(-c2ncn(-c3ccc(OC(F)(F)F)cc3)n2)cc1 (stereo not drawn) [Compound 107]	B (Less than 80)	A (50-100)	A (50-100)
CC1(OC(=O)Nc2ccc(-c3ncn(-c4ccc(OC(F)(F)F)cc4)n3)cc2)Cc2ccccc2C1 [Compound 108]	B (Less than 80)	B (Less than 50)	B (Less than 50)
